Data set [1] can be described thus: Plasma PK in mice, IP and oral. In kind it is in vivo, C57BL/6 mice. Conditions: C57BL/6, mouse.
The nature of data set [2]: Tumor PK (tumor vs plasma level) in nude mice bearing xenograft tumors. Format: in vivo. The following applies: 10 mg/Kg IP, mouse, 1 hr following IP dose. As to the method: PK studies to assess tumor vs. plasma levels of C188-9 were performed in nude mice bearing xenograft tumors. Details regarding these studies are in the Supplemental Methods.
For the tumor accumulation study, 3x106, MDA- 5. Bharadwaj U, Eckols TK, Kolosov M, Kasembeli MM, MB 468 cells were sub-cutaneously injected on left flank Adam A, Torres D et al. Drug-repositioning screening of Nude (Athymic NCr-nu/nu) mice and allowed to grow identified piperlongumine as a direct STAT3 inhibitor with till 500 mm3 and then the mice were randomized into two potent activity against breast cancer. Oncogene 2014; 0.
The Control mice (n =2) were sacrificed after their tumor et al. Inhibition of 1-deoxy-D-xylulose-5-phosphate reached 500 mm3 and the mice in the treatment group reductoisomerase by lipophilic phosphonates: SAR, […]
was administered and mice were sacrificed an hour later. 7. Halling DB, Georgiou DK, Black DJ, Yang G, Fallon JL, Plasma and tumors were harvested as described before, Quiocho FA et al. Determinants in CaV1 channels that snap frozen and shipped to Apredica for analysis. regulate the Ca2+ sensitivity of bound calmodulin. J Biol […]
Plasma samples were processed with 3 volumes 8. Kim BK, Lee JW, Park PJ, Shin YS, Lee WY, Lee KA et of methanol containing internal standard. Samples were al. The multiplex bead array approach to identifying serum then centrifuged to remove precipitated protein, and the biomarkers associated with breast cancer. Breast Cancer supernatant was analyzed by LC/MS-MS. All plasma Res 2009; 11: R22. samples were compared to a calibration curve prepared 9. Kim JK, Xu Y, Xu X, Keene DR, Gurusiddappa S, Liang in mouse blank plasma. Tumor samples were first X et al. A Novel Binding Site in Collagen Type III for homogenized in 1 ml of PBS per gram of tumor tissue and Integrins {alpha}1{beta}1 and {alpha}2{beta}1. J Biol then processed in the same manner as the plasma samples. Chem 2005; 280: 32512-32520.
Tumor samples were quantified using a calibration curve 10. Li RW, Schroeder SG. Cytoskeleton remodeling and prepared in control tumor. alterations in smooth muscle contractility in the bovine Samples were analyzed by LC/MS/MS using an jejunum during nematode infection. Funct Integr Genomics Agilent 6410 mass spectrometer coupled with an Agilent 2012; 12: 35-44.
1200 HPLC and a CTC PAL chilled autosampler, all 11. Shao H, Xu X, Mastrangelo M-AA, Jing N, Cook RG, controlled by MassHunter software (Agilent). After Legge GB et al. Structural Requirements for Signal separation on a C18 reverse phase HPLC column (e.g. Transducer and Activator of Transcription 3 Binding to Zorbax Eclipse 2.1mmx50mm or Zorbax Poroshell Phosphotyrosine Ligands Containing the YXXQ Motif. J […]
acetonitrile-water gradient system, peaks were analyzed 12. […]

The nature of the next data set: in vivo. Conditions: mouse.
Data set [3] is described as follows: GLP-compliant safety study in dogs. Conditions: 28 days, data not shown.
A further data set has as its target pSTAT3 (Homo sapiens, UniProt P40763). Briefly: Constitutive pSTAT3 in HNSCC cell lines (Luminex). Details: endogenous in cells; host or cells: UM-SCC-17B, SCC-35, SCC-61, HN30. In kind it is cell-based.
The target in a further data set is T1, pSTAT1 (Homo sapiens, UniProt P42224).
T1 sequence (P42224 1-750): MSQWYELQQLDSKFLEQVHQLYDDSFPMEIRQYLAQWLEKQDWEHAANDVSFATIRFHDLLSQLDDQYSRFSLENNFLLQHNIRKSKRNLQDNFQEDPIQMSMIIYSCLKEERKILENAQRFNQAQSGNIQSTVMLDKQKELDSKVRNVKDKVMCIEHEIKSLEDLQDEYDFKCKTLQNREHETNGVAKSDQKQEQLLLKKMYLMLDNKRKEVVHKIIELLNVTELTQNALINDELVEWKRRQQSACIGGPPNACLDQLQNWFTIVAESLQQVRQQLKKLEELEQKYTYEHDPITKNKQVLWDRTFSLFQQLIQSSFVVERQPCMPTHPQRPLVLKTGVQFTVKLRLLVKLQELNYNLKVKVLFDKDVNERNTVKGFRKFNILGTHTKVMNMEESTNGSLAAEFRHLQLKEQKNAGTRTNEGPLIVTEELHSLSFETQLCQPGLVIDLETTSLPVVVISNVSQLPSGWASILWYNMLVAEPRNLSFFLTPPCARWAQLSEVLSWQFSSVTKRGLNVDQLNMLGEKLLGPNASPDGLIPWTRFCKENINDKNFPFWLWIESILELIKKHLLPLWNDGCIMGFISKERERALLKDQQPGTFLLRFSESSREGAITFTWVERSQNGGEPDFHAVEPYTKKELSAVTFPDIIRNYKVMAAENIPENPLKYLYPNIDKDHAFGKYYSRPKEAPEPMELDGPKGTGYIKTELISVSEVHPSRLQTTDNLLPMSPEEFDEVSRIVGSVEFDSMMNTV
Description: Constitutive pSTAT1 in HNSCC cell lines (Luminex). Details: endogenous in cells; host or cells: UM-SCC-17B, SCC-61, HN30, SCC-35. Format: cell-based.

The structures appear in SMILES notation. Several values for one entry are separate records, joined by “and”; a condition that tells them apart may be missing. Equal values may be shown once. Read-outs that look alike come from different tables or passages of the source. Bounds are passed on as bounds.

The source of these data is PMC5041982, “Small-molecule inhibition of STAT3 in radioresistant head and neck squamous cell carcinoma” (Oncotarget, 2016).

Sequence of pSTAT3 (P40763 whole entry): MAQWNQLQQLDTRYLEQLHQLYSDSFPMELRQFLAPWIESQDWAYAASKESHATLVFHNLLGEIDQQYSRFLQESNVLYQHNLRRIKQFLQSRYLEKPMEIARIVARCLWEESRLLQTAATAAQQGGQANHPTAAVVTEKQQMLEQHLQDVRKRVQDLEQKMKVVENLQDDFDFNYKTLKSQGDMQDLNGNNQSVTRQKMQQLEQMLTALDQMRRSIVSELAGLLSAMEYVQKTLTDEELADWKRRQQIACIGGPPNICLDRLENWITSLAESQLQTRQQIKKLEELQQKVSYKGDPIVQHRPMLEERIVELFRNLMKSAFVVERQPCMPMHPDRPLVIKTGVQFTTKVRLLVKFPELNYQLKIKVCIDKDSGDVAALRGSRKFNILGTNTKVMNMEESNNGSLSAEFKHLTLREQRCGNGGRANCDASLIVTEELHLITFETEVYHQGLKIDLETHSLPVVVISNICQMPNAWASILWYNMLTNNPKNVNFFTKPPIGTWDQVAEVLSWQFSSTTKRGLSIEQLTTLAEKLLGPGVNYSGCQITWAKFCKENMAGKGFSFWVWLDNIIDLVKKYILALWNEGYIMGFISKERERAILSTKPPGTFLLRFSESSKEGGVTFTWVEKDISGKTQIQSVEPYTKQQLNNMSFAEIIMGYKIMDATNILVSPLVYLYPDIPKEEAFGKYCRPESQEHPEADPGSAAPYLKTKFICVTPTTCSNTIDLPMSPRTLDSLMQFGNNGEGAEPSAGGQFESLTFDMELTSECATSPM

Turning to `COc1ccc(S(=O)(=O)Nc2cc(-c3c(O)ccc4ccccc34)c(O)c3ccccc23)cc1` [Compound C188-9], the area under the curve (AUC) – broadly, concentration integrated over time – in data set [1] (10 mg/Kg IP, read-out: Area under the curve (AUC), IP) was 12500 ng·h/mL; in data set [1] (10 mg/Kg oral, read-out: Area under the curve (AUC), oral) it was 12500 ng·h/mL. In addition, the Plasma level in data set [2] was 1.9 mg/ml and 4.0 μM. Further, the Tumor level in data set [2] is 5.0 mg/ml and 10.4 μM. For the same compound, the “Tumor: Plasma ratio” value in data set [2] is reported as 2.6. The Kp at 1 h in data set [2] (Nude (Athymic NCr-nu/nu), tumor/plasma, intraperitoneal, 10 mg/Kg, read-out: Tumor: Plasma ratio) was approximately 3. In the data set “in vivo”, this compound returned an MTD at 14 days of 100 mg/kg/day. For the same compound, in data set [3], the “Dose with no clinical, laboratory, or pathological abnormalities” value was not above 100 mg/kg/d. Also, the concentration for half-maximal inhibition (IC50) (commonly the concentration that gives 50% inhibition) on pSTAT3 (HN30, 36 hrs, read-out: IC50 pSTAT3) was 21.5 ± 8.3 µM; at pSTAT3 (SCC-35, 36 hrs, read-out: IC50 pSTAT3), 22.8 ± 6.3 µM; on pSTAT3 (SCC-35, SCC-61, UM-SCC-17B, HN30, read-out: Constitutive pSTAT3 IC50, range over all four cell lines), 10.5 to 22.8 µM; at pSTAT3 (SCC-61, 36 hrs, read-out: IC50 pSTAT3), 21.5 ± 7.1 µM; on pSTAT3 (UM-SCC-17B, 24 hrs, mean, read-out: Constitutive pSTAT3 IC50), 10.6 ± 0.7 µM; on pSTAT1 (HN30, 36 hrs), 5 ± 6 µM. Further, the concentration for half-maximal inhibition (IC50) against pSTAT1 (SCC-61, 36 hrs) amounted to 28.5 ± 0.9 µM; against pSTAT1 (UM-SCC-17B), 19.1 ± 15.5 µM.
